Reference: patent US7307096B2, “Combined agents for treatment of glaucoma” (Sankyo Company, Limited, priority 1999, dated 2007)
Structures can show the parent of a compound that is named as a salt.

Experiments:
[1] = system: glaucoma; settings: clinical trial; Eur. J. Ophthalmol. 1997, 7(1): 35-9; cited from earlier work
[2] = system: intraocular pressure of New Zealand White Rabbits; experiment: Intraocular pressure lowering test (3), change ratio of intraocular pressure (Example 3); type: in vivo; settings: 50 μl each, four hours after second administration
Method: Using a tonometer (“Alcon Applanation Pneumatonography; manufactured by Alcon), the intraocular pressure of each of New Zealand White Rabbits having body weights of 2 to 3 kg was measured (without anesthesia), followed by administration of 50 μl of a test compound in the form of eye drops. The intraocular pressure was then measured for 4 hours at intervals of one hour (single administration test).
After the measurement of the intraocular pressure as in Example 2, 50 μl of a solution of test compound 1 was instilled into the eyes, followed by administration of the same amount of the solution of test compound 2 after 5 minutes. Four hours after the second administration, the intraocular pressure was measured and the change ratio of the intraocular pressure was determined by the below-described equation: The change ratio of intraocular pressure (%)=[(intraocular pressure after administration of eye drops−intraocular pressure before administration of eye drops)/intraocular pressure before administration of eye drops]×100.
In this Example, the same test compounds as Example 1 were employed. The results are shown below in Tables 1 and 2.

[3] = system: ocular hypertension models of New Zealand White Rabbits; experiment: Intraocular pressure lowering test (4), ocular hypertension model (Example 4); type: in vivo; settings: relative to control group
Method: Using New Zealand White Rabbits having body weights of 2 to 3 kg, ocular hypertension models were prepared in accordance with the method of Kurihara, et al. (Jpn. J. Ocular Pharmacology, 4, 62-64(1990)) and the intraocular pressure lowering action of the test compounds was investigated.
Described specifically, the rabbits were maintained under general anesthesia and their intraocular pressure was measured using a tonometer (“Alcon Applanation Pneumatonography”; manufactured by Alcon). After instillation of local anesthetics into the eyes of the rabbits, 0.1 ml of a 5% sodium chloride solution were injected into their vitreous bodies through a 30 gauge needle. An increase in the intraocular pressure was confirmed 30 minutes after injection, followed by administration of 50 μl of an eye drop solution containing the test compound. Their intraocular pressure was then measured for 2 hours at intervals of 30 minutes (single administration test).
An ocular hypertension model was made as in Example 1. After confirmation of an increase in the intraocular pressure, 50 μl of a test compound 1 was instilled to the eyes, followed by application of the same amount of a test compound 2 into the eyes after 5 minutes. After this second administration, the intraocular pressure was measured for 2 hours at intervals of 1 hour. Intraocular pressure lowering was determined by the below-described equation. Decrease in intraocular pressure (mmHg)=(intraocular pressure after instillation of a compound group−intraocular pressure before instillation of the compound group)−(intraocular pressure after instillation of a control group−intraocular pressure before instillation of the control group)
The term “control group” in the above-described formula means a group to which physiological saline was administered to the eyes instead of each of the test compound 1 and test compound 2. Groups other than this control group are a compound group.
Also in this Example, the same test compounds as described in Example 1 were employed.

For `CCCCC(=O)N(Cc1ccc(-c2ccccc2-c2nnn[nH]2)cc1)[C@H](C(=O)O)C(C)C` [CGP-48933], the effect for glaucoma [1] is listed as “insufficient”.
With `CCCc1nc(C(C)(C)O)c(C(=O)O)n1Cc1ccc(-c2ccccc2-c2nnn[nH]2)cc1` [Compound A] the “Change ratio (%) of intraocular pressure” value ([2]; Table 1, Compound A (4%) then physiological saline) was 11.4 ± 5.5%, the “Change ratio (%) of intraocular pressure” value ([2]; Table 2, Compound A (4%) then physiological saline) was 11.5 ± 4.1% and the “Decrease in intraocular pressure (mmHg)” value ([3]; Compound A (1%) then physiological saline, time after instillation 0 min) was 0.0 ± 2.1 mmHg. For the same compound, the “Decrease in intraocular pressure (mmHg)” value ([3]; Compound A (1%) then physiological saline, time after instillation 60 min) was −1.7 ± 2.2 mmHg and the “Decrease in intraocular pressure (mmHg)” value ([3]; Compound A (1%) then physiological saline, time after instillation 120 min) was −3.4 ± 1.7 mmHg.
For `CC(C)OC(=O)CCC/C=C\C[C@@H]1[C@@H](CC[C@@H](O)CCc2ccccc2)[C@H](O)C[C@@H]1O` [Compound D, latanoprost], the “Change ratio (%) of intraocular pressure” value ([2]; Table 2, physiological saline then Compound D (0.005%)) was 17.2 ± 8.8%.
In the case of `CC(C)(C)NC[C@H](O)COc1nsnc1N1CCOCC1` [Compound B, timolol maleate], the “Decrease in intraocular pressure (mmHg)” value ([3]; physiological saline then Compound B (0.25%), time after instillation 0 min) is reported as 0.0 ± 1.5 mmHg, the “Decrease in intraocular pressure (mmHg)” value ([3]; physiological saline then Compound B (0.25%), time after instillation 60 min) is reported as −2.0 ± 3.5 mmHg and the “Decrease in intraocular pressure (mmHg)” value ([3]; physiological saline then Compound B (0.25%), time after instillation 120 min) is reported as −1.9 ± 3.2 mmHg.
For `CCCCCCCC(=O)CC[C@@H]1[C@@H](C/C=C\CCCC(=O)OC(C)C)[C@@H](O)C[C@H]1O` [Compound C, isopropyl unoprostone], the “Change ratio (%) of intraocular pressure” value ([2]; Table 1, physiological saline then Compound C (0.12%)) was −2.4 ± 9.1%.
